Experimental data from patent US20080003635A1, “High Throughput Collagen Synthesis Assay” (InterMune, Inc., priority 2006, published 2008).
Like-named read-outs stand apart in the source and are kept apart here.

Test system: Human lung fibroblast cells HFL1
Experiment: cells
Format: cell-based
Description: Human lung fibroblast cells HFL1 were seeded as 5×10^4 cells/well in 48-well plate and cultured for 3-7 days in FK12 medium supplemented with 10% heat inactivated fetal calf serum, 2 mM L-glutamine, streptomycin (100 μg/ml), and penicillin (100 units/ml). […] Medium was removed and cells were fixed to the plate with 0.5% glutaraldehyde, prepared in 1× phosphate-buffered-saline (PBS), for 30 minutes at room temperature. Glutaraldehyde was removed, cells were washed with ddH2O and the first 24 wells, which were used to determine collagen synthesis, were treated with 0.5 M acetic acid for 30 minutes, while the second 24 wells were stained with 0.1% crystal violet for viability for 30 minutes at room temperature. After all of the wells were washed with ddH2O, 250 μl of Sirius Red was added to acetic acid-treated cells for 2 hours. The Sirius Red was then removed, and the wells were washed with ddH2O. Absorbed Sirius Red and crystal violet were eluted with 300 μl of alkaline solution and 0.1 M citric acid (pH: 4.2) prepared in 50% ethanol, respectively.
Absorbances of eluted Sirius Red and crystal violet were determined at 540 and 600 nm. The extent of collagen accumulation was determined by normalizing the levels of induced collagen to cell density.

Which results are given for `Cc1ccc(=O)n(-c2ccccc2)c1` [P, pirfenidone]?
fold induction at 1000 µM (HFL1, 24 h, read-out: Fold Induction of Collagen, 250 pg/ml TGF-β, 24 hrs., P 1 mM, A 300 pg/mL): 0.973; fold induction at 1000 µM (HFL1, 24 h, read-out: Fold Induction of Collagen, 500 pg/ml TGF-β, 24 hrs., P 1 mM, A 300 pg/mL): 0.98; fold induction at 1000 µM (HFL1, 24 h, read-out: Fold Induction of Collagen, 1000 pg/ml TGF-β, 24 hrs., P 1 mM, A 300 pg/mL): 0.998; fold induction at 1000 µM (HFL1, 48 h, read-out: Fold Induction of Collagen, 250 pg/ml TGF-β, 48 hrs., P 1 mM, A 300 pg/mL): 0.997; fold induction at 1000 µM (HFL1, 48 h, read-out: Fold Induction of Collagen, 500 pg/ml TGF-β, 48 hrs., P 1 mM, A 300 pg/mL): 0.884; fold induction at 1000 µM (HFL1, 48 h, read-out: Fold Induction of Collagen, 1000 pg/ml TGF-β, 48 hrs., P 1 mM, A 300 pg/mL): 0.954; fold induction at 1000 µM (HFL1, 72 h, read-out: Fold Induction of Collagen, 250 pg/ml TGF-β, 72 hrs., P 1 mM, A 300 pg/mL): 0.928; fold induction at 1000 µM (HFL1, 72 h, read-out: Fold Induction of Collagen, 500 pg/ml TGF-β, 72 hrs., P 1 mM, A 300 pg/mL): 0.931; fold induction at 1000 µM (HFL1, 72 h, read-out: Fold Induction of Collagen, 1000 pg/ml TGF-β, 72 hrs., P 1 mM, A 300 pg/mL): 0.917
